Results from patent publication US20130109581A1, “POSITIVELY CHARGED SPECIES AS BINDING REAGENTS IN THE SEPARATION OF PROTEIN AGGREGATES FROM MONOMERS” (priority 2009, published 2013).
Entries after “also recorded” stand apart in the source; their conditions may differ.

Columns and labels:
tau aggregates = type: binding, human
[1] = target: T1, oligomeric beta amyloid 1-42 (globulomer) (Homo sapiens, UniProt P05067); test: Misfolded Protein Assay: capture of globulomer spiked into CSF (Example 2); type: binding
T1 construct: beta amyloid (1-42) was monomerized with incubation in hexafluoroisopropanol
Method: To assess the ability of these reagents to capture protein aggregates, the previously described Misfolded Protein Assay or MPA (Lau et al., 2007, PNAS, 104: 11551) was used (FIG. 3). In this assay, the capture reagent of interest is attached to beads which are incubated with a sample of interest containing a mixture of normal monomeric and aggregated proteins to allow for capture and then washed to remove unbound material. After this enrichment step, an elution buffer is used to dissociate the captured material from the beads as well as to denature any aggregates. The eluted material is then applied to a sandwich ELISA that is specific for the protein of interest. Strong aggregate-binding reagents acting as effective capture reagents show a high signal from the sample containing a mixture of monomers and aggregates, but not from the control sample, which contains only physiologic levels of monomeric protein.
Beads displaying carboxylic acids were treated with EDC and BMPH to create maleimide-displaying beads, to which thiolated peptides (or other thiolated organic molecules) were added through a Michael addition reaction. Dynal M270 magnetized beads (30 mg/mL bead) displaying carboxylic acids were vortexed and placed into a 15 ml falcon tube. The tube was placed into a magnet, and the supernatant removed. The beads were washed 2 times with 0.1 M MES buffer, pH 5, and then the washing buffer was removed. The coupling solution (33 mM BMPH, 130 mM EDC in MES buffer) was added, and the tube was rocked for 30 minutes at room temperature. After washing in 1×MES, 1× Tris, pH 7.5, the beads were quenched with Tris buffer (50 mM Tris buffer, pH 7.5) for 15 minutes. The beads were then washed 2 times in phosphate buffer and added to 5 mM thiolated ligand in degassed phosphate. The beads were rotated for 21 hours, then washed in 0.1 M phosphate buffer, pH 7, 1×PBS, and stored.
To prepare the globulomer, beta amyloid (1-42) was monomerized with incubation in hexafluoroisopropanol. The hexafluoroisopropanol was removed by vacuum centrifugation. DMSO, PBS, and 2% SDS were then added to the sample. The sample was vortexed and sonicated and then incubated at 37° C. After 6 hours, the sample was diluted with water, vortexed, and incubated at 37° C. for an additional 19 hours. The sample was ultracentrifuged at 135000×g for 1 hour at 4° C., and the supernatant retained. The globulomers were spiked into CSF for the assay.
Aliquots of beads conjugated to various reagents were added to wells of a 96-well plate. Globulomer-spiked CSF in a Tris buffer was added to each well, and the plates were incubated for 1 hour at 37° C. with shaking. For the negative control, normal CSF was used, which is considered to contain only monomers of beta amyloid. The beads were washed with TBST wash buffer, and bound materials were eluted with a denaturing solution (typically 0.1-0.15 N NaOH). A reconditioning buffer was added to the eluate prior to beta amyloid detection via a beta amyloid (1-42) specific sandwich ELISA.
In order to determine the amount of ligand loading, amine quanitation was used. Aliquots of beads were placed in a magnet, and the supernatant removed. 80% phenol in ethanol, 0.2 mM KCN in pyridine/water, and 6% ninhydrin in ethanol was added to each tube. The aliquots were vortexed and heated for 7 minutes at 100° C. After cooling to room temperature, 60% ethanol was added. The tubes were placed in a magnet, and the absorbance of the supernatant at 570 nm was determined. The loading of the beads was determined according to Beer's law, using the extinction coefficient of 15000 M-1 cm-1.
Beads (3 ul or 15 ul) were added to samples containing 0.5 ng/mL globulomer spiked into CSF. […] For PSR1, this limit was ˜5 nmol ligand/mg bead for binding preferentially to globulomer. […]

T1 sequence (P05067 672-713 limits assumed): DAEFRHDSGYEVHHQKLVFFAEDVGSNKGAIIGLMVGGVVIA

Nab-Nab-Nab-Nbn-Nab-Nbn [PSR1]
distinguishing control and AD brain homogenates, Tau detected (tau aggregates): clearly distinguished between control and either vCJD or AD samples | total Tau signal, AD vs normal brain homogenate (tau aggregates): higher signals in the AD samples relative to the normal brain homogenates; also recorded: highest signal | minimum density required for oligomer capture ([1]; 0.5 ng/mL globulomer in CSF, assuming all amines protonated at pH 7.4): roughly 6000 nmol positive charges/m^2 | minimum density required for oligomer capture ([1]; 0.5 ng/mL globulomer in CSF, from 2-5 m^2 surface area per gram bead): approximately 1500 nmol ligand/m^2 | minimum density required for oligomer capture ([1]; 0.5 ng/mL globulomer spiked into CSF, 3 ul or 15 ul beads): ~5 nmol ligand/mg bead | capture of oligomers (relative light units from the Abeta ELISA) ([1]; globulomer-spiked CSF vs normal CSF, reagent on Dynal M270 beads): capable of enriching oligomers | sensitivity and specificity for globulomers ([1]; native vs denatured globulomer in CSF, directly conjugated beads vs streptavidin beads with biotin-PSR1): higher sensitivity and specificity for globulomers
